Earlier results as cited in patent US20230364244A1, “DENDRIMER COMPOSITIONS AND METHODS FOR DRUG DELIVERY TO INJURED KIDNEY” (Ashvattha Therapeutics, Inc., priority 2020, published 2023).

Biological target: T1, PPAR-δ (Homo sapiens, UniProt Q03181)
T1 construct: host or cells: human mesenchymal stem cells (endogenous receptor)
T1 sequence (Q03181 1-441): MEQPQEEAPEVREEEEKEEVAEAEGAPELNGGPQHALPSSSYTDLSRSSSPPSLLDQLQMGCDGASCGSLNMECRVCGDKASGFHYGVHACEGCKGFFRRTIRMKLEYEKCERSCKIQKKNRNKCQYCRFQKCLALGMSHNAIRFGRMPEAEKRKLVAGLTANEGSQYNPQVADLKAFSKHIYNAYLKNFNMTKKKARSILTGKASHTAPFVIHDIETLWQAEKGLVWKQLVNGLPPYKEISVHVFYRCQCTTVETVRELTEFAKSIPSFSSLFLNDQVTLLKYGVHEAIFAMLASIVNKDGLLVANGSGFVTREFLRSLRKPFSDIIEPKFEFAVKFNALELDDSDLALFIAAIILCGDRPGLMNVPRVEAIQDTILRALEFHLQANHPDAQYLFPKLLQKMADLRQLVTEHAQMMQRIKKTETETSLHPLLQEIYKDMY
Settings: co-culture; inhibition of PPAR-δ in MSCs

SMILES: O=C(NCCS(=O)(=O)c1ccc(C(F)(F)F)cn1)c1ccc(Cl)cc1 [GSK3787]
- ability of human MSCs to limit proliferation of peripheral blood mononuclear cells: enhanced their ability to limit proliferation of peripheral blood mononuclear cells
